A melting point compilation (Tetko et al.; mined from patent text by program, amines drawn as free bases though some values may be those of a salt)

Row | Structure (SMILES) | melting point [°C]
1 | Cc1ccc(S(=O)(=O)NC(=O)NCCC(F)=C(F)F)cc1 | 134 to 136
2 | Cc1c(C(=O)Nc2ccc(N3CCN(C4CCOCC4)CC3)c(C#N)c2)cnn1-c1ccc(Cl)cc1 | 276
3 | CCCC(=O)c1cnc2c(OC)cc(O)cc2c1Nc1ccc(O)cc1C | 251 to 253
4 | CCC(=NC#N)N[C@@H]1c2cc(C#N)ccc2OC(C)(C)[C@H]1O (relative stereo) | 122 to 124
5 | CCN(CC)C(=O)CN1C(=O)C(NC(=O)Nc2ccccc2Cl)N=C(c2ccccc2)c2ccccc21 (configuration not stated) | 173 to 175
6 | Cc1ccc(NC(=O)c2ccc(C(=O)Nc3ccccc3NC(=O)OC(C)(C)C)nc2)cc1Nc1nc(-c2cccnc2)cs1 | 222 to 224
7 | COc1ccc(C(=O)CC(=O)C(C)(C)C)cc1C(=O)CC(=O)C(C)(C)C | 69.4 to 70.8
8 | Nc1ccc2c(c1)C(NC(=O)C(F)(F)F)CC2 (configuration not stated) | 133 to 134
9 | COc1cccc(C2(Cn3ccnc3)CC(CSc3ccc(C)cc3)ON2C)c1 (configuration not stated) | 107 to 108
10 | CCOc1c(C#N)sc(NC(C)=O)c1C#N | 267 to 268
11 | C=CCNc1nc(Cl)nc2c1ncn2CC=C | 110 to 112
12 | CSc1cc(=O)c2occc2s1 | 149 to 150
13 | CC1(C)Oc2ccc(C#N)cc2[C@@H](N2CCCCC2=O)[C@@H]1O (relative stereo) | 155
14 | CC1(C)CC(OC(=O)CCCCCCCCC(=O)OC2CC(C)(C)N(O)C(C)(C)C2)CC(C)(C)N1O | 101
15 | CCCCCCCCOc1ccc(C(=O)NN)cc1 | 90
16 | Cc1cc(N)c(C)c(/C=C/C(=O)O)c1 | 185
17 | CCCCCCCCNC(=O)C1=C(C(=O)Nc2cc(OC3CCCC3)c(Cl)cc2F)CCCC1 | 127 to 130
18 | COc1cc(OC)c2c(=O)[nH]c(-c3cc(C)c(OCCCCN4CCCC4)c(C)c3)nc2c1 | 180 to 181
19 | O=C(NC1CCCCC1)NS(=O)(=O)c1ccc2c(c1)CCN(C(=O)N1CCCC1)CC2 | 139 to 141
20 | O=C(O)CCCc1cc2nc(C(F)(F)F)ccc2n1S(=O)(=O)c1ccc2c(c1)OCCO2 | 158
21 | CCSC1CC2(C)C(CCC3C4CCC(C(C)=O)C4(C)CC(=O)C32)CC1O (configuration not stated) | 170 to 173
22 | CC(=O)N[C@@H](C)COc1cnc(-c2nc3ccc(OCC4CC4)cc3o2)c(F)c1 | 158 to 159
23 | Cc1ccc(C(=O)C2=C(O)C(=O)N(c3ncc(S(=O)(=O)c4ccc([N+](=O)[O-])cc4)s3)C2c2cccnc2)cc1 (configuration not stated) | 211
24 | O=C(O)c1cn(C2CC2)c2c(F)c(N3CCOC(CN4CCNCC4)C3)c(F)cc2c1=O (configuration not stated) | 260
25 | O=[N+]([O-])c1cccnc1NCc1ccccn1 | 114
26 | COC(=O)c1ccc(S(C)(=O)=O)c(CBr)c1Cl | 77 to 78

Row | Structure (SMILES) | melting point [°C]
27 | COC(=O)CCCCCCCCCCCCCCCCCCCCC(=O)c1c(C)cc(OC)c(OC)c1O | 72 to 72.5
28 | C=CC(=O)OCCCCCCC(CCCCCCOC(=O)C=C)C(=O)OCCCCCCCCCCCCCCCCOc1ccc(-c2cccc(F)c2F)cc1 | 33.8 to 35.5
29 | O=C(O)CCCc1ccc(NS(=O)(=O)c2cccc(Cl)c2)cn1 | 141 to 142
30 | O=C(Oc1ccc([N+](=O)[O-])cc1)C(O)C(O)C(=O)Oc1ccc([N+](=O)[O-])cc1 (configuration not stated) | 163 to 164
31 | N#Cc1cc2sccc2nc1Cl | 222 to 224
32 | CC(C)(O)CN(c1ccc(F)cc1)[C@H]1c2cc(C#N)ccc2OC(C)(C)[C@@H]1O | 70
33 | COc1ccc2c(c1N)CN(S(C)(=O)=O)CC(=O)N2 | 232 to 233
34 | CCCN(CC)c1cc(C)nc(Oc2c(C)ccc(Cl)c2C)c1C | 74 to 76
35 | COC(=O)c1ccc(C(C)=O)o1 | 101 to 102
36 | CCCCCCCCCOc1ncc(-c2ccc(O)cc2)cn1 | 89 to 90
37 | COc1cc2c(cc1OC)CN(c1c(C)c(C)c3c(c1C)C(c1ccc(C)cc1)C(C)(C)O3)C2 (configuration not stated) | 156 to 159
38 | CCC1C(CC)N1S(=O)(=O)c1ccc(C)cc1 (configuration not stated) | 69 to 70
39 | CCOCc1nc2c(N)nc3ccccc3c2n1CC(C)(C)OCCS(C)(=O)=O | 183 to 185
40 | O=C(NC(=O)c1c(F)cccc1F)Nc1ccc(C(O)(C(F)(F)F)C(F)(F)F)cc1 | 205 to 207
41 | O=C1CCCc2ccc(OCCCCN3CCN(c4cccc5c4OCCCO5)CC3)nc2N1 | 200 to 201
42 | CC(C(=O)O)c1ccc(OCCNC(=O)C2Cc3ccccc3N2S(=O)(=O)c2ccc(-c3cc(C(F)(F)F)ccc3Cl)cc2)cc1 (configuration not stated) | 91 to 100
43 | CC(C)(C)c1ccc(P2Oc3ccccc3-c3ccccc32)cc1 (configuration not stated) | 90 to 92
44 | CCC(C)NC(=O)Nc1ccccc1C(=O)OC (configuration not stated) | 124
45 | C1=C(CCC2CCCO2)CCN(Cc2c[nH]c3ncccc23)C1 (configuration not stated) | 70 to 72
46 | CCCCCCCNC(=O)Nc1ccccc1C(=O)Nc1cccnc1 | 144
47 | CCOC(=O)CNc1cc(F)ccc1C(=O)O | 123 to 125
48 | CC(c1cccc2c1C(=O)NS2(=O)=O)[Si](C)(C)C (configuration not stated) | 123 to 125
49 | O=c1[nH]c2c(I)c(Cl)c(Cl)c(I)c2[nH]c1=O | 353 to 354
50 | Nc1c(F)c(F)nc(F)c1Cl | 118 to 120
51 | CCOCCn1c(C(=O)C2CCN(C(=O)OC(C)(C)C)CC2)nc2ccccc21 | 96 to 98
52 | CC(=O)OCCn1nc(-c2cc(C(C)(C)C)c(O)c(C(C)(C)C)c2)c2ccc(C)nc21 | 102 to 103

Next, values leading:

Row | melting point [°C] | Structure (SMILES)
53 | 79 to 81 | CC1(C)OC(c2ccc(S(N)(=O)=O)cc2F)=C(c2ccccc2)C1=O
54 | 154 to 156 | COc1ccc(C2=NN(c3cnc4ccccc4n3)C(=O)[C@H]3CC=CC[C@@H]23)cc1OC (relative stereo)
55 | 70 to 71 | COC(=O)[C@H]1N[C@@H](c2cccnc2)[C@@H]([N+](=O)[O-])[C@@H]1[C@@H](OCc1ccccc1)C(C)C
56 | 157 to 158 | CCOc1ccc(C(=O)N2c3ccccc3C(N3CCCc4ccccc43)CC2C)cc1OCC (configuration not stated)
57 | 135 to 138 | Clc1ccc(Nc2nc3ccccc3c3c2ncn3-c2ccco2)cc1Cl
58 | 234 to 235 | Cc1ccccc1C(=NC(=Nc1ccccc1)N1CCC(=O)CC1)Nc1ccc(F)cc1
59 | 182 | OC(Cc1ccc(Cl)cc1)(Cn1ccnc1)c1ccc(-c2ccccc2)cc1 (configuration not stated)
60 | 149 to 151 | Cc1c(NC(=O)c2ccc(C(C)(C)C)cc2)cccc1-c1cc(Br)c(=O)n(C)c1
61 | 48 to 49 | CCc1nc2cnc3ccccc3c2s1
62 | 296 to 297 | Cc1ccc(-c2ccc3c(c2)C=C(C(=O)O)CC(c2ccccc2)O3)cc1 (configuration not stated)
63 | 186 | COc1cc(-c2nc3ccccc3n2Cc2ccc(Cl)cc2Cl)cc(OC)c1OC
64 | 82 to 85 | OC(c1cccc(-c2cc3ccccc3[nH]2)c1)c1cc2ccccc2[nH]1 (configuration not stated)
65 | 206 to 208 | CC(=O)c1ccc2c(c1)c(=O)c(C(=O)O)cn2Cc1ccc(F)cc1
66 | 105 to 106 | Cc1ccc(S(=O)(=O)OCC(COC(=O)c2ccccc2)OS(=O)(=O)c2ccc(C)cc2)cc1 (single isomer, unassigned; (-))
67 | 194 to 195 | CS(=O)(=O)Nc1cc(NC(=O)CCl)c([N+](=O)[O-])cc1Oc1ccccc1
68 | 94 to 97 | OCCCCCCOc1ccc(OCc2ccccc2)cc1
69 | 100 to 101 | C[C@H](N=C(C(N)=O)C(C)(C)C)c1ccccc1
70 | 81 to 82 | COC(=O)[C@@H]1[C@H](NCc2cc(OC(F)(F)F)ccc2OC)[C@H](c2ccccc2)N[C@@H]1C (relative stereo)
71 | 154 to 155 | Nc1cccc(C(CC2=NCCN2)c2ccccn2)c1 (configuration not stated)
72 | 228 | COC(=O)c1ncc(-c2ccccc2)nc1N
73 | 92 to 94 | Cn1nnnc1-c1cccc(Oc2cccc(C(F)(F)F)c2)n1
74 | 158 to 159 | Fc1ccc(C2OC3(CCN(Cc4ccccc4)CC3)N3CCCCC23)cc1 (configuration not stated)
75 | 89 to 91 | CCOC(=O)C(C(=O)Nc1ccc(OC)cc1)(c1ccccc1)c1ccccc1

Row | melting point [°C] | Structure (SMILES)
76 | 138 to 141 | O=[N+]([O-])c1c(Br)cccc1CS(=O)(=O)c1ccccc1
77 | 115 to 118 | Cc1c(-c2ccccc2)oc2c(S)cccc2c1=O
78 | 231 to 233 | CC(C)(O)Cn1c(CCC2(C)OCCO2)nc2c(N)nc3ccccc3c21
79 | 312 | O=C(O)c1ccc2c(c1)S(=O)(=O)c1ccccc1-2
80 | 98 to 99 | CCc1cccc(CC(=O)O)c1OCCCc1cn(-c2ccc(C(F)(F)F)cn2)nc1C(C)(C)C
81 | 114 | Cn1c(=S)ccc2ccccc21
82 | 228 to 230 | COc1ccccc1NC(=O)NCc1nnc(C)n1-c1sc(C)c(C)c1C(=O)c1ccc(Cl)cc1
83 | 149 to 150 | O=C1OC2(CC(c3ccccc3C(F)(F)F)=NO2)c2ccccc21 (configuration not stated)
84 | 120 to 121 | OC(c1ccccc1F)c1cc(C(F)(F)F)nc2c(C(F)(F)F)cccc12 (configuration not stated)
85 | 153 to 155 | O=C(O)CCC(=O)c1ccc(-c2cccc(F)c2)cc1
86 | 114 to 116 | COc1cc(COC(=O)NC2Cc3ccccc3C2)ccc1OC(C)=O
87 | 207 to 209 | Sc1ncc(-c2ccccc2)s1
88 | 128 to 129 | CNC(=O)C(=NOCF)c1ccccc1Oc1ncnc(Oc2ccccc2Cl)c1F
89 | 104 to 105 | O=C1NCC(Cc2ccccc2)O1 (configuration not stated)
90 | 209 to 211 | CC(=O)NNc1c(C)cnc2c(NC(=O)c3ccccc3C(F)(F)F)cccc12
91 | 175 to 180 | C#CC[C@H](c1nc2cc(Cl)ccc2c(=O)n1Nc1ccccc1)N(CCCN)C(=O)c1ccc(C)c(F)c1F
92 | 213 | COCc1cc(O)n2nc(SCc3ccccc3)nc2n1
93 | 245 to 247 | O=C(NCc1cccc(-c2ccc(CS(=O)(=O)Cc3n[nH]c(=O)[nH]3)cc2)c1)c1nc2ccccc2c(=O)[nH]1
94 | 147 to 148 | CC(O)c1ccc2occ(C#N)c(=O)c2c1 (configuration not stated)
95 | 165 | COc1nnc(-c2ccccc2)c(=O)n1N
96 | 70 | CCOC(=O)CCc1nc(-c2cccc(OC)c2)nc2ccccc12
97 | 188 to 189 | Cc1ccc(-n2nc3c(cc2=O)CCc2cnccc2-3)cc1
